Tested on: bacterial infections (bone, wound, respiratory and other)
Assay: PET scan imaging of human subjects after intravenous injection of the 18F-labeled fluoroquinolone
Format: in vivo
Conditions: 700 to 1400 MBq i.v.; PET scan 30 to 60 minutes after injection; patients with various bacterial infections vs healthy subjects
Procedure: [^18F]ciprofloxacin administration to human subjects suspected of having bacterial infection and PET monitoring of the localization of [^18F] in the subjects. Healthy subjects are injected intravenously with 700 to 1400 MBq of [^18F]ciprofloxacin. In order to correct for the attenuation of photons by tissue, a transmission scan with two 400-MBq pin sources or from CT data (if the scan is acquired on a PET/CT scanner) is recorded after obtaining the emission scan. Thirty to sixty minutes after injection of [^18F]ciprofloxacin, data are obtained by PET scan of the regions of concern (such as the whole body or a specific area such as the hip or chest, depending on the clinical need) . Each subject is positioned supine on the imaging bed. The data on healthy subjects establish the appearance of the distribution of [^18F]ciprofloxacin in uninfected patients.
The same protocol is used on patients diagnosed by other criteria with bacterial bone infections, bacterial wound infections, bacterial respiratory infections, and other bacterial infections.
Healthy subjects and subjects confirmed by conventional diagnostic methods to have bacterial infections of various types are injected intravenously with 700 to 1400 MBq of [^18F]fleroxacin. After 30 to 60 minutes, the subjects are subjected to PET scan imaging as described in Example 1.

## O=C(O)c1cn(C2CC2)c2cc(N3CCNCC3)c(F)cc2c1=O [[^18F]ciprofloxacin]
  PET scan results of patients with bacterial infections versus healthy volunteers: distinguishable from the PET scan results of healthy volunteers

## [^18F]fleroxacin
  PET scan results of patients with bacterial infections versus healthy volunteers: distinguishable from the PET scan results of healthy volunteers

Source: patent US20060110787A1, “Use of fluorine-18-labeled fluoroquinolone antibiotics for diagnosing and monitoring bacterial infection” (The Board Trustees of the University of Arkansas, priority 2004, published 2006)
